Data as given in ChEMBL document CHEMBL5154891, “Discovery of AZD4625, a Covalent Allosteric Inhibitor of the Mutant GTPase KRASG12C” (J Med Chem, 2022).
Active and inactive are the calls of the source. The calls are words filed in the database; no cut-off is given here.

Legend:
GTPase KRas = GTPase KRas (Homo sapiens, UniProt P01116, G12C); experiment: Inhibition of C-terminal Avi and 6His-tagged human KRAS 2B G12C mutant (1 to 166 residues) expressed in Escherichia coli BL21 (DE3) assessed as inhibition of SOS mediated nucleotide exchange preincubated for 4 hrs followed by SOS1 addition by HTRF assay
[1] = Lipophilicity, log D of the compound at pH 7.4; conditions: buffer, pH 7.4, logD
[2] = Metabolic stability in rat hepatocytes assessed as intrinsic clearance per 10^6 cells at 5 uM measured after 60 mins by UHPLC/UV/MS/MS; format: ADME, cell-based, Hepatocyte; conditions: for hepatocyte CLint at 5 µM: read-out: CLH
[3] = Bioavailability in Han Wistar rat at 2 micromol/kg, po and 1 umol/kg, iv; format: ADME, organism-based; conditions: in vivo; for bioavailability: Han Wistar, 2 µmol/kg
[4] = Drug metabolism in human hepatocyte assessed as oxidative metabolism; format: ADME, cell-based; conditions: hepatocytes, 1 h, time 60 min
[5] = Metabolic stability in human Hepatocyte assessed as intrinsic clearance measured per 10^6 cells; format: ADME, cell-based; conditions: hepatocytes, read-out: CLH
in vitro = conditions: human, liver microsomes, CLH
[6] = Stability in mouse whole blood; format: ADME, tissue-based
[7] = Stability in rat whole blood; format: ADME, tissue-based
[8] = Stability in dog whole blood; format: ADME, tissue-based, Canis lupus familiaris
[9] = Stability in monkey whole blood; format: ADME, tissue-based, Macaca mulatta; conditions: rhesus monkey
[10] = Inhibition of spheroid proliferation in human NCI-H358 cells harboring KRAS G12C mutant measured after 6 days by CellTiter-Glo assay; format: functional, cell-based; conditions: NCI-H358, 144 h
A549 = experiment: Inhibition of spheroid proliferation in human A549 cells […] measured after 6 days by CellTiter-Glo assay; format: functional, cell-based; conditions: A549, 144 h
[11] = target: Ribosomal protein S6 kinase alpha-1 (Homo sapiens, UniProt Q15418, G12C); experiment: Inhibition of p90RSK phosphorylation in human NCI-H358 cells harboring KRAS G12C mutant measured for 2 hrs by immunofluorescence assay; format: cell-based
[12] = target: T1, Ribosomal protein S6 kinase alpha-1 (Homo sapiens, UniProt Q15418); experiment: Inhibition of p90RSK phosphorylation in human PC-9 cells measured for 2 hrs by immunofluorescence assay; format: cell-based
[13] = target: T1, Ribosomal protein S6 kinase alpha-1; experiment: Inhibition of p90RSK phosphorylation in human Calu-6 cells harboring KRAS Q61K measured for 2 hrs by immunofluorescence assay; format: cell-based
[14] = target: Elongation factor 2 (Homo sapiens) (UniProt P13639); experiment: Binding affinity to EEF2 in human […] cell lysate assessed as trypsin-mediated biotinylated cysteine residues digestion by measuring reduction in protein level at 4 uM pretreated for 2 hrs followed by labelled with iodoacetamide-desthiobiotin by MS analysis relative to control; format: subcellular; conditions: NCI-H358
[15] = target: T2, Oxidation resistance protein 1 (Homo sapiens) (UniProt Q8N573); experiment: Binding affinity to OXR1 in human […] cell lysate assessed as trypsin-mediated biotinylated cysteine residues digestion by measuring reduction in protein level at 4 uM pretreated for 2 hrs followed by labelled with iodoacetamide-desthiobiotin by MS analysis relative to control; format: subcellular; conditions: NCI-H358
T2 sequence (whole entry): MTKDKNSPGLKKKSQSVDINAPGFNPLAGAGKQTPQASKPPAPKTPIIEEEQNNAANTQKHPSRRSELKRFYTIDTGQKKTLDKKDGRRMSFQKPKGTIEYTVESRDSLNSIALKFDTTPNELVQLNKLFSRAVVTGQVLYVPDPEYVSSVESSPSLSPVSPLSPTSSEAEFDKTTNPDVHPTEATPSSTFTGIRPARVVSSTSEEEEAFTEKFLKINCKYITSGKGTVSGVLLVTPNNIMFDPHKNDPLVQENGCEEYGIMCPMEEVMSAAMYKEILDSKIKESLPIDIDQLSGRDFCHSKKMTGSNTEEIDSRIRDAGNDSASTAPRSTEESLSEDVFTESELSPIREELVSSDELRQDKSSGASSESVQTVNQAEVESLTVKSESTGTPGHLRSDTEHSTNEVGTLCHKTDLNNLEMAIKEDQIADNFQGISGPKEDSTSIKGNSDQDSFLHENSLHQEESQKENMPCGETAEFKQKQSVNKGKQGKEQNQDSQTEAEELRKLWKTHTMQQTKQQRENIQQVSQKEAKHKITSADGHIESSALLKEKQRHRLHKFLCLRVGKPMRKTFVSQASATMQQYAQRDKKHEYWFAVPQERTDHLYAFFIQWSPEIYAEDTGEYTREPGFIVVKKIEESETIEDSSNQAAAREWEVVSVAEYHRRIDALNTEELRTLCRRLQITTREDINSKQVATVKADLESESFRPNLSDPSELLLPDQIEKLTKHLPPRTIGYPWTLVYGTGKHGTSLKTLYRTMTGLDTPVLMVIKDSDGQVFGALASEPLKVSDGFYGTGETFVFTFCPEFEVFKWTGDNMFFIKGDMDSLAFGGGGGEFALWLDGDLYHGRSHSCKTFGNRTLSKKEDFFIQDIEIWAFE

MIA PaCa-2 = experiment: Antitumor activity against human MIA PaCa-2 cells harbouring KRAS G12C mutant xenografted in athymic nude Foxn1 nu mouse assessed as tumor regression at 100 mg/kg, po administered daily for 21 days and measured twice weekly by caliper analysis; format: functional, organism-based; conditions: time 21.0 day
Mus musculus = experiment: In vivo inhibition of RAS/MAPK pathway in human MIA PaCa-2 cells harbouring KRAS G12C mutant xenografted in athymic nude Foxn1 nu mouse assessed as reduction in DUSP6 expression measured at 3 to 6 hrs post dose; format: functional; conditions: dose 4-100 mg/kg, time 3-6 hrs, DDE = dose-dependent effect
[16] = Hepatic blood flow in CD-1 mouse; format: ADME
[17] = Hepatic blood flow in Wistar Han rat; format: ADME
[18] = Hepatic blood flow in Beagle dog; format: ADME, Canis lupus familiaris
[19] = Toxicity in athymic nude-Foxn1nu mouse xenografted with human MIA PaCa-2 cells assessed as tolerability at 4 to 100 mg/kg, po administered for 21 days; format: organism-based; conditions: in vivo, 504 h, dose 4-100 mg/kg, time 21 day

SMILES | IC50 (GTPase KRas) | logD [1] | hepatocyte CLint at 5 µM [2] | bioavailability [3] | microsomal CLint at 1 h, 5 µM (in vitro) | further results
C=CC(=O)N1CCN2c3ncnc4cc(-c5c(C)ccc6[nH]ncc56)c(Cl)c(c34)OC[C@@H]2C1 (single isomer, unassigned; atropisomer 2) | 27100 nM |  |  |  |  | 
C=CC(=O)N1CCN2c3ncnc4cc(-c5c(C)ccc6[nH]ncc56)c(Cl)c(c34)OCC[C@H]2C1 (single isomer, unassigned; atropisomer 2) | 9 nM | 3.4 | 46 µL/min/1e6 cells | 16% | 189 µL/min/mg | Drug metabolism [4]: Metabolite_Detected; hepatocyte CLint [5]: 20 µL/min/1e6 cells
C=CC(=O)N1C[C@H]2COc3c(Cl)c(-c4c(O)cccc4F)c(F)c4ncnc(c34)N2C[C@@H]1C | 135 nM | 3.4 | 238 µL/min/1e6 cells | 31% | 110 µL/min/mg | 
C=CC(=O)N1CCN2c3ncnc4c(F)c(-c5c(O)cccc5F)c(Cl)c(c34)OC[C@@H]2C1 | 19 nM | 2.9 | 79 µL/min/1e6 cells | 0% | 13 µL/min/mg | Stability [6]: Unstable; Stability [7]: Unstable; Stability [8]: Unstable; Stability [9]: Unstable
C=CC(=O)N1C[C@@H]2CCOc3c(Cl)c(-c4c(O)cccc4F)c(F)c4ncnc(c34)N2C[C@H]1C | 3 nM | 3.2 | 40 µL/min/1e6 cells | 75% | 28 µL/min/mg | IC50 [10]: 4.1 nM; IC50 (A549): 1670 nM; IC50 [11]: 36 nM; IC50 [12]: 4950 nM; IC50 [13]: > 30000 nM; Activity [14]: Active; Activity [15]: Active; Activity (MIA PaCa-2): Active; Activity (Mus musculus): Dde; hepatocyte CLint [5]: < 2 µL/min/1e6 cells; QH [16]: 152 mL/min/kg; QH [17]: 72 mL/min/kg; QH [18]: 55 mL/min/kg; Activity [19]: Non-Toxic
C=CC(=O)N1CCN2c3ncnc4cc(-c5c(C)ccc6[nH]ncc56)c(Cl)c(c34)OCC[C@@H]2C1 (single isomer, unassigned; atropisomer 1) | 15500 nM | 3.4 | 50 µL/min/1e6 cells |  | 192 µL/min/mg | 
C=CC(=O)N1CCN2c3ncnc4c(F)c(-c5c(O)cccc5F)c(Cl)c(c34)OCC[C@H]2C1 | < 5 nM | 2.7 | 99 µL/min/1e6 cells | 36% | 66 µL/min/mg | hepatocyte CLint [5]: 12 µL/min/1e6 cells
C=CC(=O)N1CCN2c3ncnc4cc(-c5c(C)ccc6[nH]ncc56)c(Cl)c(c34)OC[C@@H]2C1 (atropisomer aS) |  |  | 109 µL/min/1e6 cells |  | 58 µL/min/mg | 
C=CC(=O)N1C[C@H]2COc3c(Cl)c(-c4c(O)cccc4F)c(F)c4ncnc(c34)N2C[C@H]1C (stereo in doubt; 30) | 117 nM | 3.2 | 64 µL/min/1e6 cells | 28% | 24 µL/min/mg | 
C=CC(=O)N1CCN2c3ncnc4cc(-c5c(C)ccc6[nH]ncc56)c(Cl)c(c34)OC[C@H]2C1 (atropisomer aR) | 171 nM |  |  |  |  | 
C=CC(=O)N1CCN(c2ncnc3cc(-c4c(C)ccc5[nH]ncc45)c(Cl)cc23)CC1 |  | 3.5 | 56 µL/min/1e6 cells |  | 38 µL/min/mg | 
C=CC(=O)N1C[C@H]2COc3c(Cl)c(-c4c(O)cccc4F)c(F)c4ncnc(c34)N2C[C@H]1C (stereo in doubt; 32) | 64 nM |  |  |  |  | CLint_hep ([2]; 1 h, 5 µM): 43 uL/min/1e6 cells; F ([3]; po, at 2 µmol/kg): 31%; GI50 ([10]; time 6 day): 284 nM
C=CC(=O)N1CCN2c3ncnc4cc(-c5c(C)ccc6[nH]ncc56)c(Cl)c(c34)OC[C@H]2C1 (single isomer, unassigned; atropisomer 2) | 17800 nM |  |  |  |  | 
C=CC(=O)N1C[C@@H]2CCOc3c(Cl)c(-c4c(O)cccc4F)c(F)c4ncnc(c34)N2C[C@@H]1C | 138 nM | 3.2 | 143 µL/min/1e6 cells | 51% | 203 µL/min/mg | 
